In US10696615B2, “Prenylated hydroxystilbenes” (The University of Sydney, priority 2011, dated 2020):

What was measured:
Assay type in all cases: cell-based, human
M14 = test: NCI in vitro cancer screen, Melanoma; conditions: M14
T-47D = test: NCI in vitro cancer screen, Breast Cancer
786-0 = test: NCI in vitro cancer screen, Renal Cancer; conditions: 786-0
NCI-H322M = test: NCI in vitro cancer screen, Non-Small Cell Lung Cancer
HCC-2998 = test: NCI in vitro cancer screen, Colon Cancer; conditions: HCC-2998
COLO 205 = test: NCI in vitro cancer screen, Colon Cancer; conditions: COLO 205
MDA-MB-435 = test: NCI in vitro cancer screen, Melanoma; conditions: MDA-MB-435
RXF-393 = test: NCI in vitro cancer screen, Renal Cancer; conditions: Homo sapiens, RXF-393
ADR-RES (NCI/ADR-RES) = test: NCI in vitro cancer screen, Ovarian Cancer; conditions: Homo sapiens, NCI/ADR-RES
MALME-3M = test: NCI in vitro cancer screen, Melanoma
HCT-15 = test: NCI in vitro cancer screen, Colon Cancer; conditions: HCT-15
PC-3 = test: NCI in vitro cancer screen, Prostate Cancer; conditions: PC-3
SN12C = test: NCI in vitro cancer screen, Renal Cancer
MOLT-4 = test: NCI in vitro cancer screen, Leukemia; conditions: MOLT-4
NCI-H522 = test: NCI in vitro cancer screen, Non-Small Cell Lung Cancer; conditions: Homo sapiens, NCI-H522
SNB-75 = test: NCI in vitro cancer screen, CNS Cancer; conditions: SNB-75
SR = test: NCI in vitro cancer screen, Leukemia
UO-31 = test: NCI in vitro cancer screen, Renal Cancer; conditions: UO-31
LOX IMVI = test: NCI in vitro cancer screen, Melanoma
SF-295 = test: NCI in vitro cancer screen, CNS Cancer; conditions: SF-295
K-562 = test: NCI in vitro cancer screen, Leukemia; conditions: K-562
SK-MEL-2 = test: NCI in vitro cancer screen, Melanoma; conditions: SK-MEL-2
NCI-H460 = test: NCI in vitro cancer screen, Non-Small Cell Lung Cancer; conditions: NCI-H460
HL-60 (TB) = test: NCI in vitro cancer screen, Leukemia; conditions: HL-60 (TB)
ACHN = test: NCI in vitro cancer screen, Renal Cancer
RPMI-8226 = test: NCI in vitro cancer screen, Leukemia; conditions: RPMI-8226
A498 = test: NCI in vitro cancer screen, Renal Cancer; conditions: A498
[1] = tested on: MDA-MB-231 (MDA-MB-231/ATCC); test: NCI in vitro cancer screen, Breast Cancer; conditions: MDA-MB-231
UACC-62 = test: NCI in vitro cancer screen, Melanoma; conditions: UACC-62
A549/ATCC = test: NCI in vitro cancer screen, Non-Small Cell Lung Cancer
SK-OV-3 = test: NCI in vitro cancer screen, Ovarian Cancer; conditions: SK-OV-3
[2] = Homo sapiens, read-out: LC50 (the source's name)
[3] = read-out: LC50 (the source's name)

With `COc1cc(/C=C/c2cc(O)cc(OC)c2CC=C(C)C)ccc1O` [USYDS1, (E)-2-(3-methyl-2-buten-1-yl)-4′,5-dihydroxy-3,3′-dimethoxystilbene] the GI50 (M14; Homo sapiens) was 0.04 µM, the CC50 (M14; [2]) was 44 µM and the TGI (M14) was 13.9 µM. For the same compound, the TGI (T-47D) was 19.8 µM, the GI50 (T-47D; Homo sapiens, T47D) was 0.72 µM and the CC50 (T-47D; Homo sapiens, T47D, read-out: LC50 (the source's name)) was 67.4 µM. It also gave a TGI (786-0) of 14.0 µM, a GI50 (786-0; Homo sapiens) of 0.48 µM and an LC50 (50% net cell kill) (786-0; Homo sapiens) greater than 100 µM. The TGI (NCI-H322M) was 25.7 µM, the GI50 (NCI-H322M; Homo sapiens) was 11.8 µM and the LC50 (50% lethal concentration) (NCI-H322M; Homo sapiens) was 55.9 µM. For the same compound, the TGI (HCC-2998) was 11.5 µM, the GI50 (HCC-2998; Homo sapiens) was 1.07 µM and the CC50 (HCC-2998; [2]) was 35.8 µM. For the same compound, the TGI (COLO 205) was 16.1 µM, the GI50 (COLO 205; Homo sapiens) was 3.86 µM and the CC50 (COLO 205; [2]) was 42.6 µM. For the same compound, the GI50 (MDA-MB-435; Homo sapiens) was 0.03 µM, the CC50 (MDA-MB-435; [2]) was 43 µM and the TGI (MDA-MB-435) was 13.8 µM. It also gave a GI50 (RXF-393) of 0.03 µM, a CC50 (RXF-393; [3]) of 39.1 µM and a GI50 (ADR-RES (NCI/ADR-RES)) of 0.03 µM. For the same compound, the CC50 (ADR-RES (NCI/ADR-RES); [3]) was 70.7 µM, the GI50 (MALME-3M; Homo sapiens, Malme-3M) was 3.47 µM and the CC50 (MALME-3M; Homo sapiens, Malme-3M, read-out: LC50 (the source's name)) was 78.3 µM. The TGI (MALME-3M; MALME-3M) was 25.8 µM, the TGI (HCT-15) was 16.1 µM and the GI50 (HCT-15; Homo sapiens) was 0.05 µM. The CC50 (HCT-15; [2]) was greater than 100 µM, the GI50 (PC-3; Homo sapiens) was 0.42 µM and the CC50 (PC-3; [2]) was 47.9 µM. It also gave a TGI (PC-3) of 16.1 µM, a TGI (SN12C) of 16.9 µM and a GI50 (SN12C; Homo sapiens) of 0.99 µM. It also gave a CC50 (SN12C; [2]) of 54.2 µM, a GI50 (MOLT-4; Homo sapiens) of 0.43 µM and a CC50 (MOLT-4; [2]) of 80.2 µM. For the same compound, the TGI (MOLT-4) was 12.3 µM, the GI50 (NCI-H522) was 0.02 µM and the CC50 (NCI-H522; [3]) was 44.8 µM. For the same compound, the GI50 (SNB-75; Homo sapiens) was 0.03 µM, the CC50 (SNB-75; [2]) was 72 µM and the TGI (SNB-75) was 20.2 µM. The TGI (SR) was 24.4 µM, the GI50 (SR; Homo sapiens) was 0.04 µM and the CC50 (SR; [2]) was greater than 100 µM. It also gave a GI50 (UO-31; Homo sapiens) of 0.25 µM, a CC50 (UO-31; [2]) of 51.3 µM and a TGI (UO-31) of 16.0 µM. For the same compound, the TGI (LOX IMVI) was 16.2 µM, the GI50 (LOX IMVI; Homo sapiens) was 0.05 µM and the CC50 (LOX IMVI; [2]) was 58.8 µM. It also gave a GI50 (SF-295; Homo sapiens) of 0.65 µM, a CC50 (SF-295; [2]) of 55.7 µM and a TGI (SF-295) of 16.2 µM. It also gave a GI50 (K-562; Homo sapiens, K562) of 0.04 µM, a CC50 (K-562; Homo sapiens, K562, read-out: LC50 (the source's name)) greater than 100 µM and a TGI (K-562) of 11.7 µM. It also gave a GI50 (SK-MEL-2; Homo sapiens) of 0.32 µM, an LC50 (SK-MEL-2; Homo sapiens) of 38 µM and a TGI (SK-MEL-2) of 10.6 µM. The GI50 (NCI-H460; Homo sapiens) was 0.23 µM, the CC50 (NCI-H460; [2]) was 42 µM and the TGI (NCI-H460) was 1.38 µM. The TGI (HL-60 (TB)) was 0.06 µM, the GI50 (HL-60 (TB); Homo sapiens) was 0.02 µM and the CC50 (HL-60 (TB); [2]) was 68.9 µM. The TGI (ACHN) was 14.0 µM, the GI50 (ACHN; Homo sapiens) was 0.07 µM and the CC50 (ACHN; [2]) was 44.6 µM. For the same compound, the GI50 (RPMI-8226; Homo sapiens) was 0.11 µM, the CC50 (RPMI-8226; [2]) was greater than 100 µM and the TGI (RPMI-8226) was 14.8 µM. For the same compound, the TGI (A498) was 8.45 µM, the GI50 (A498; Homo sapiens) was 1.84 µM and the CC50 (A498; [2]) was 32.2 µM. It also gave a GI50 ([1]; Homo sapiens) of 0.15 µM, a CC50 [1, 2] of 61.2 µM and a TGI [1] of 2.43 µM. The GI50 (UACC-62; Homo sapiens) was 1.62 µM, the CC50 (UACC-62; [2]) was 46.6 µM and the TGI (UACC-62) was 18.3 µM. For the same compound, the TGI (A549/ATCC) was 11.3 µM, the GI50 (A549/ATCC; Homo sapiens) was 0.5 µM and the CC50 (A549/ATCC; [2]) was 40.3 µM. It also gave a GI50 (SK-OV-3; Homo sapiens) of 0.19 µM, a CC50 (SK-OV-3; [2]) of 34.7 µM and a TGI (SK-OV-3) of 11.6 µM.
